From the NIST ThermoML archive (doi:10.1016/j.jct.2018.03.031)
Several values for one entry are separate records, joined by “and”; a condition that tells them apart may be missing. Equal entries are not always repeated.

Assays:
[1] = DSC
[2] = Molar enthalpy of transition or fusion; conditions: DSC
[3] = molar heat capacity at constant pressure; conditions: 101.33 kPa, Large sample (1 g) DSC

CCCC[P+](CCCC)(CCCC)CCCC.FC(F)(F)C(F)(F)[P-](F)(F)(F)(C(F)(F)C(F)(F)F)C(F)(F)C(F)(F)F
Conditions	Molar enthalpy of transition or fusion, [2]	Triple point temperature, [1]
Crystal 1	7.8 kJ/mol	342.15 K
Crystal 2	8.9 kJ/mol and 8.7 kJ/mol	313.75 K and 313.15 K

molar heat capacity at constant pressure [J/K/mol], [3]
Conditions	283.15 K	288.15 K	293.15 K	298.15 K	303.15 K	323.15 K	328.15 K
Crystal 1	–	–	–	–	–	1029.4	1049.8
Crystal 2	971	981.2	990.3	1003.2	1018.4	–	–

CCn1cc[n+](C)c1.O=S(=O)([N-]S(=O)(=O)C(F)(F)F)C(F)(F)F
[3], Liquid
Conditions	molar heat capacity at constant pressure [J/K/mol]
283.15 K	521
288.15 K	522.6
293.15 K	524.2
298.15 K	526.4
303.15 K	528.5
308.15 K	530.7
313.15 K	532.5
318.15 K	534.8
323.15 K	536.3
328.15 K	538.9
333.15 K	540.2
338.15 K	541.7

COCC[N+]1(C)CCCC1.O=S(=O)([N-]S(=O)(=O)C(F)(F)F)C(F)(F)F
[3], Liquid
Conditions	molar heat capacity at constant pressure [J/K/mol]
283.15 K	575.3
288.15 K	578.9
293.15 K	580.3
298.15 K	582.3
303.15 K	584.7
308.15 K	586.5
313.15 K	588.9
318.15 K	591.3
323.15 K	593.2
328.15 K	596.3
333.15 K	597.5
338.15 K	602.6

CCCC[N+]1(C)CCCC1.O=S(=O)([O-])C(F)(F)F [1-butyl-1-methylpyrrolidinium trifluoromethanesulfonate]
[3], Liquid
Conditions	molar heat capacity at constant pressure [J/K/mol]
283.15 K	436.5
288.15 K	438.3
293.15 K	439.9
298.15 K	442.7
303.15 K	445.3
308.15 K	447.8
313.15 K	452.2
318.15 K	455.3
323.15 K	457.2
328.15 K	460
333.15 K	461.9
338.15 K	464.6

CCCCn1cc[n+](C)c1C.O=S(=O)([O-])C(F)(F)F [1-butyl-2,3-dimethylimidazolium trifluoromethanesulfonate]
Conditions	Molar enthalpy of transition or fusion, [2]	Triple point temperature, [1]
Crystal 1	15 kJ/mol	315.25 K and 316.15 K
Crystal 2	5.4 kJ/mol and 7.1 kJ/mol	307.45 K and 306.15 K

molar heat capacity at constant pressure [J/K/mol], [3]
Conditions	283.15 K	288.15 K	293.15 K	323.15 K	328.15 K	333.15 K	338.15 K
Crystal 2	381.1	394.6	407.1	–	–	–	–
Liquid	–	–	–	472.2	474.3	475.2	478.7

CCCCCCOS(=O)(=O)[O-].CC[n+]1ccn(C)c1 [3-ethyl-1-methyl-1H-imidazolium hexyl sulfate]
[3], Liquid
Conditions	molar heat capacity at constant pressure [J/K/mol]
283.15 K	505.2
288.15 K	508.3
293.15 K	509.1
298.15 K	513.9
303.15 K	517.4
308.15 K	520.2
313.15 K	523.1
318.15 K	526
323.15 K	528.4
328.15 K	531.5
333.15 K	534
338.15 K	537.6

CCCCO [butan-1-ol]
[3], Liquid
Conditions	molar heat capacity at constant pressure [J/K/mol]
283.15 K	168
288.15 K	171
293.15 K	174.1
298.15 K	177.9
303.15 K	181.1
308.15 K	184.5
313.15 K	187.8
318.15 K	191.4
323.15 K	196
328.15 K	200.1
333.15 K	204.1
338.15 K	208.4
